{
  "source": "patent US8334313B2",
  "about": "“Ureido substituted benzoic acid compounds and their use for nonsense suppression and the treatment of disease” (PTC Therapeutics, Inc., priority 2002, dated 2012)",
  "data": [
    {"test_system": "luciferase reporter construct containing a UGA premature termination codon", "assay": "cell-based luciferase reporter assay (nonsense suppression / readthrough)", "parameters": "key: *****: both extremely high potency and extremely high efficacy of protein synthesis; ****: extremely high potency of protein synthesis and very high efficacy; ****: very high potency of protein synthesis and extremely high efficacy; ***: both very high potency and very high efficacy of protein synthesis; **: very high potency of protein synthesis and significant efficacy; **: significant potency of protein synthesis and very high efficacy; *: significant potency and efficacy of protein synthesis", "conditions": "ranking combining potency and efficacy of protein synthesis; UGA luciferase reporter stably transfected in 293T Human Embryonic Kidney cells", "procedure": "Activity measurements in Table I were performed in a cell-based luciferase reporter assay (as described in Section 4.2) comprising a luciferase reporter construct containing a UGA premature termination codon that was stably transfected in 293T Human Embryonic Kidney cells. A small molecule (3-[3-(4-Isopropyl-phenyl)-2,5-dioxoimidazolidin-1-yl]-benzoic acid) known to allow readthrough of premature termination codons, was used as an internal standard. Activity measurements are based on the qualitative relation between the minimum concentration of compound required to produce a given protein in a cell (potency) and the maximum amount of protein produced by the cell (efficacy). Potency and efficacy activities are ranked as either extremely high, very high or significant.\nThe test compounds identified in the nonsense suppression assay (for convenience referred to herein as a “lead” compound) can be tested for biological activity using host cells containing or engineered to contain the target RNA element coupled to a functional readout system. For example, the lead compound can be tested in a host cell engineered to contain the RNA with the premature translation termination codon controlling the expression of a reporter gene. In this example, the lead compounds are assayed in the presence or absence of the RNA with the premature translation termination codon. Compounds that modulate premature translation termination and/or nonsense-mediated mRNA decay in vivo will result in increased expression of the full-length gene, i.e., past the premature termination codon. Alternatively, a phenotypic or physiological readout can be used to assess activity of the target RNA with the premature translation termination codon in the presence and absence of the lead compound. Both the in vitro and in vivo nonsense suppression assays used herein and as described in International Patent Publication WO 01/44516, which is incorporated by reference in its entirety, can be used to identify lead compounds can also be used to determine an EC50 for the lead compounds.\nA stable cell line harboring the […] nonsense-containing luciferase gene is treated with a test compound. Cells are grown in standard medium supplemented with 1% penicillin-streptomycin (P/S) and 10% fetal bovine serum (FBS) to 70% confluency and split 1:1 the day before treatment. The next day, cells are trypsinized and 40,000 cells are added to each well of a 96-well tissue culture dish. Serial dilutions of each compound are prepared to generate a six-point dose response curve spanning 2 logs ([…]). The final concentration of the DMSO solvent remains constant at 1% in each well. Cells treated with 1% DMSO serve as the background standard, and cells treated with gentamicin serve as a positive control.", "values": [
      {"smiles": "O=C(O)c1cccc(N2CCN(c3ccc(C(F)(F)F)cc3)C2=O)c1F", "note": "[Compound 58, 2-Fluoro-3-[2-oxo-3-(4-trifluoromethyl-phenyl)-imidazolidin-1-yl]-benzoic acid]", "Activity": "**"},
      {"smiles": "COC(=O)c1ccc(N2CC(=O)N(c3cccc(C(=O)O)c3)C2=O)cc1", "note": "[Compound 25, 3-[3-(4-methoxycarbonylphenyl)-2,5-dioxoimidazolidin-1-yl]-benzoic acid]", "Activity": "*"},
      {"smiles": "CC(C)c1ccc(N2CCN(c3cccc(C(=O)O)c3)C2=S)cc1", "note": "[Compound 60, 3-[3-(4-Isopropyl-phenyl)-2-thioxo-imidazolidin-1-yl]-benzoic acid]", "Activity": "****"},
      {"smiles": "CCOC(=O)c1ccc(N2C(=O)CN(c3cccc(C(=O)O)c3)C2=O)cc1", "note": "[Compound 17, 3-[3-(4-formyl-ethylester-phenyl)-2,4-dioxo-imidazolidin-1-yl]-benzoic acid]", "Activity": "*"},
      {"smiles": "O=C(O)c1cccc(N2CC(=O)N(c3ccccc3F)C2=O)c1", "note": "[Compound 10, 3-[3-(2-fluoro-phenyl)-2,4-dioxo-imidazolidin-1-yl]-benzoic acid]", "Activity": "*"},
      {"smiles": "O=C(O)c1cccc(N2C(=O)CN(c3ccc(Oc4ccccc4)cc3)C2=O)c1", "note": "[Compound 3, 3-[2,5-dioxo-3-(4-phenoxy-phenyl)-imidazolidin-1-yl]-benzoic acid]", "Activity": "**"},
      {"smiles": "CN(C)c1ccc(N2CCN(c3cccc(C(=O)O)c3)C2=O)cc1", "note": "[Compound 47, 3-[3-(4-Dimethylamino-phenyl)-2-oxo-imidazolidin-1-yl]-benzoic acid]", "Activity": "*****"},
      {"smiles": "O=C(O)c1cccc(N2CCN(c3cccs3)C2=O)c1", "note": "[Compound 73, 3-(2-Oxo-3-thiophen-2-yl-imidazolidin-1-yl)-benzoic acid]", "Activity": "****"},
      {"smiles": "O=C(O)c1cccc(N2CCN(c3ccc(N4CCCC4)cc3)C2=O)c1", "note": "[Compound 44, 3-[2-Oxo-3-(4-pyrrolidin-1-yl-phenyl)-imidazolidin-1-yl]-benzoic acid]", "Activity": "****"},
      {"smiles": "COc1ccccc1CN1CC(=O)N(c2cccc(C(=O)O)c2)C1=O", "note": "[Compound 14, 3-[3-(2-methoxy-benzyl)-2,5-dioxo-imidazolidin-1-yl]-benzoic acid]", "Activity": "*"},
      {"smiles": "Cc1ccc(N2CC(=O)N(c3cccc(C(=O)O)c3)C2=O)cc1", "note": "[Compound 26, 3-(2,5-Dioxo-3-p-tolylimidazolidin-1-yl)-benzoic acid]", "Activity": "*"},
      {"smiles": "O=C(O)c1cccc(N2CCN(c3ccc(OC(F)F)cc3)C2=O)c1", "note": "[Compound 39, 3-[3-(4-Difluoromethoxy-phenyl)-2-oxo-imidazolidin-1-yl]-benzoic acid]", "Activity": "*****"},
      {"smiles": "Cc1ccc(N2CCN(c3cccc(C(=O)O)c3)C2=O)cc1F", "note": "[Compound 71, 3-[3-(3-Fluoro-4-methyl-phenyl)-2-oxo-imidazolidin-1-yl]-benzoic acid]", "Activity": "*****"},
      {"smiles": "O=C(O)c1cccc(N2CCN(c3ccc(OCC(=O)N4CCOCC4)cc3)C2=O)c1", "note": "[Compound 77, 3-{3-[4-(2-Morpholin-4-yl-2-oxo-ethoxy)-phenyl]-2-oxo-imidazolidin-1-yl}-benzoic acid]", "Activity": "*"},
      {"smiles": "O=C(O)c1cccc(N2C(=O)CN(c3cccc(Br)c3)C2=O)c1", "note": "[Compound 18, 3-[3-(3-bromo-phenyl)-2,5-dioxo-imidazolidin-1-yl]-benzoic acid]", "Activity": "*"},
      {"smiles": "O=C(O)c1cccc(N2CCN(c3ccc(N4CCCCC4)cc3)C2=O)c1", "note": "[Compound 59, 3-[2-Oxo-3-(4-piperidin-1-yl-phenyl)-imidazolidin-1-yl]-benzoic acid]", "Activity": "****"},
      {"smiles": "O=C(NCc1ccc(Cl)cc1Cl)Nc1cccc(C(=O)O)c1", "note": "[Compound 21, 3-[3-(2,4-dichloro-benzyl)-ureido]-benzoic acid]", "Activity": "*"},
      {"smiles": "COc1cccc(N2C(=O)CN(c3cccc(C(=O)O)c3)C2=O)c1", "note": "[Compound 11, 3-[3-(3-methoxy-phenyl)-2,4-dioxo-imidazolidin-1-yl]-benzoic acid]", "Activity": "*"},
      {"smiles": "CC1(C)CN(c2cccc(C(=O)O)c2)C(=O)N1c1ccc(OC(F)(F)F)cc1", "note": "[Compound 82, 3-[4,4-Dimethyl-2-oxo-3-(4-trifluoromethoxy-phenyl)-imidazolidin-1-yl]-benzoic acid]", "Activity": "*"},
      {"smiles": "O=C(O)c1cccc(N2CCN(c3ccc(-n4cccc4)cc3)C2=O)c1", "note": "[Compound 46, 3-[2-Oxo-3-(4-pyrrol-1-yl-phenyl)-imidazolidin-1-yl]-benzoic acid]", "Activity": "*****"},
      {"smiles": "CC(C)c1ccc(N2CCN(c3cccc(C(=O)O)c3)S2(=O)=O)cc1", "note": "[Compound 15, 3-[5-(4-isopropyl-phenyl)-1,1-dioxo-1l6-[1,2,5]-thiadiazolidin-2-yl]-benzoic acid]", "Activity": "**"},
      {"smiles": "O=C(O)c1cccc(N2C(=O)CN(CC3CCCCC3)C2=O)c1", "note": "[Compound 6, 3-(3-cyclohexylmethyl-2,5-dioxo-imidazolidin-1-yl)-benzoic acid]", "Activity": "*"},
      {"smiles": "O=C(O)c1cccc(N2C(=O)CN(CC3CCCO3)C2=O)c1", "note": "(stereo not shown) [Compound 13, 3-[2,5-dioxo-3-(tetrahydro-furan-2-ylmeethyl)-imidazolidin-1-yl]-benzoic acid]", "Activity": "*"},
      {"smiles": "O=C(O)c1cccc(N2C(=O)CN(c3ccc(Cc4ccccc4)cc3)C2=O)c1", "note": "[Compound 16, 3-[3-(4-benzyl-phenyl)-2,5-dioxo-imidazolidin-1-yl]-benzoic acid]", "Activity": "*"},
      {"smiles": "O=C(NCc1ccc(Br)cc1)Nc1cccc(C(=O)O)c1", "note": "[Compound 20, 3-[3-(4-bromo-benzyl)-ureido]-benzoic acid]", "Activity": "*"},
      {"smiles": "O=C(O)c1cc(N2CCN(c3ccc(C(F)(F)F)cc3)C2=O)ccc1F", "note": "[Compound 53, 2-Fluoro-5-[2-oxo-3-(4-trifluoromethyl-phenyl)-imidazolidin-1-yl]-benzoic acid]", "Activity": "****"},
      {"smiles": "CC(C)c1ccc(N2C(=O)CN(c3cccc(C(=O)O)c3)C2=O)cc1", "note": "[Compound 9, 3-[3-(4-isopropyl-phenyl)-2,4-dioxo-imidazolidin-1-yl]-benzoic acid]", "Activity": "**"},
      {"smiles": "O=C(O)c1cccc(N2CCN(c3ccsc3)C2=O)c1", "note": "[Compound 74, 3-(2-Oxo-3-thiophen-3-yl-imidazolidin-1-yl)-benzoic acid]", "Activity": "****"},
      {"smiles": "O=C(O)c1cccc(N2CCN(c3ccc(F)nc3)C2=O)c1", "note": "[Compound 79, 3-[3-(6-Fluoro-pyridin-3-yl)-2-oxo-imidazolidin-1-yl]-benzoic acid]", "Activity": "*"},
      {"smiles": "O=C(O)c1cccc(N2CCN(c3ccc4c(c3)OCO4)C2=O)c1", "note": "[Compound 41, 3-(3-Benzo[1,3]dioxol-5-yl-2-oxo-imidazolidin-1-yl)-benzoic acid]", "Activity": "*****"},
      {"smiles": "CCOc1ccc(N2CC(=O)N(c3cccc(C(=O)O)c3)C2=O)cc1", "note": "[Compound 27, 3-[3-(4-Ethoxy-phenyl)-2,5-dioxo-imidazolin-1-yl]-benzoic acid]", "Activity": "*"},
      {"smiles": "CC(C)(C)c1ccc(NC(=O)Nc2cccc(C(=O)O)c2)cc1", "note": "[Compound 33, 3-[3-(4-tert-Butylphenyl)-ureido]-benzoic acid]", "Activity": "**"},
      {"smiles": "O=C(O)c1cccc(N2CCN(c3ccc(C(F)(F)F)cc3)C2=O)c1", "note": "[Compound 45, 3-[2-Oxo-3-(4-trifluoromethyl-phenyl)-imidazolidin-1-yl]-benzoic acid]", "Activity": "*****"},
      {"smiles": "O=C(O)c1cccc(N2C(=O)CN(Cc3ccccc3Cl)C2=O)c1", "note": "[Compound 5, 3-[3-(2-chloro-benzyl)-2,5-dioxo-imidazolidin-1-yl]-benzoic acid]", "Activity": "***"}
    ]}
  ]
}
